How the values were obtained:
pro-uPA and plasminogen = biological target: T1, pro-uPA and plasminogen (Homo sapiens, UniProt P00747); experiment: Fibrinolytic activity in vitro (reciprocal activation of pro-uPA and plasminogen, urokinase activity by chromogenic substrate S-2444); assay type: biochemical; conditions: for EC50 (fibrinolytic activity): in vitro, slope of kinetic curve A405 nm, S-2444, mean of two independent experiments; for fibrinolytic activity (in words): compared with FGFC1
T1 construct: purchased Sigma Aldrich (China)
T1 sequence (P00747 20-810 limits assumed): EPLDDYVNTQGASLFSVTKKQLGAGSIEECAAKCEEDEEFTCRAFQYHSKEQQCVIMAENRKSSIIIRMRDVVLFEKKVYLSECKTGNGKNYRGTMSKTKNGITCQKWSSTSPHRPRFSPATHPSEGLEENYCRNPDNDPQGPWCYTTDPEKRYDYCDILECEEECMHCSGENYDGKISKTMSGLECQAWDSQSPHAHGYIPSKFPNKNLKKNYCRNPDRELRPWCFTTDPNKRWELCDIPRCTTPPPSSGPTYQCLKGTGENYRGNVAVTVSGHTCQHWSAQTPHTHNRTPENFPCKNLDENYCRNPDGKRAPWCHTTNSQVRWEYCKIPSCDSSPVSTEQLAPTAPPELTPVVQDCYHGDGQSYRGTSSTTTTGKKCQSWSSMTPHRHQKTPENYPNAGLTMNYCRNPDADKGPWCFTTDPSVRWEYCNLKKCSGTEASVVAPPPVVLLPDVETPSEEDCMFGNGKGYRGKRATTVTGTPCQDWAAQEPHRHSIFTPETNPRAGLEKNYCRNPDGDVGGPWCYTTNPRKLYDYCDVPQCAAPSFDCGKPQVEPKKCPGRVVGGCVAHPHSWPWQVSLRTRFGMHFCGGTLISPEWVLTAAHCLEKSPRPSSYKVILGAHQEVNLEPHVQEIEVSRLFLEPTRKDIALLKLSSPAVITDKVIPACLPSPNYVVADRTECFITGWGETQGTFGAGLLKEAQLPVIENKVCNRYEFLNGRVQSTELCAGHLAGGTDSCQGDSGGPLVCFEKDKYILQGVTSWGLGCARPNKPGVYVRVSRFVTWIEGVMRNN
Description: To evaluate the antithrombotic effect, all the synthesized FGFC1 derivatives were tested for their fibrinolytic activities in vitro. Fibrinolytic activity of each compound was expressed as 50% effective concentration (EC50), and FGFC1 was used as a positive control. The reciprocal activation of pro-uPA catalyzed plasminogen, which was measured based on urokinase activity by a chromogenic substrate S-2444. EC50 was calculated with the slope of kinetic curve of enzymatic reaction based on the reciprocal activation of pro-uPA and plasminogen (Figure 1 and Figure 2). The effect of introducing different hydrophobic moieties/groups to C-2, C-2′ and C-1′′ positions of FGFC1 was investigated by replacement of the protons on C2-OH/C2′-OH moieties and C1′′-COOH position, with methyl, ethyl, propyl, and bromo-substituted benzyl halide groups to yield derivatives F1–F7 (purity > 98% by HPLC analysis), which presented different urokinase activities and reciprocal activation of Pro-uPA-catalyzed plasminogen in vitro.
The fibrinolytic activities of compounds FGFC1 and derivatives F1–F7 were evaluated by plasmin method. Tris-HCl buffer solution (100 mmol/L, NaCl, pH 7.4), plasminogen (plg), BSA, and S-2444 were used as substrates. Derivatives F1–F7 dissolved in 0.05 mol/L Tris-HCl buffer containing NaCl (100 mmol/L) at pH 7.4 and the BSA used as a substrate.The concentrations of plg, BSA and S-2444 were 1.5 μmol/L, 5 μmol/L and 4 nmol/L, respectively. They were prepared in a 96-well microplate. After the predetermined sample solutions (compounds FGFC1 and F1–F7) were added, pro-uPA (20 μmol/L) was added into the 96-well microplate. The microplate was then cultivated at 37 °C for 60 min. The continuous variation trend of absorbance was determined for evaluation of fibrinolytic activity on the slope of the plots of A405 nm within 150 min. In the blank group, an equal volume of Tris-HCl solution was used as a blank control. All sample solutions were prepared by adding a small amount of DMSO (<5%, v/v) solution to dissolve the derivatives.

HeLa cells = experiment: MTT cytotoxicity assay on HeLa cells; assay type: cell-based, human; conditions: 0.25, 0.5, 1.0 mg/mL, Figure 2A
Description: (§1) The cytotoxicity of FGFC1 and derivative F6 on HeLa cell lines was screened by MTT assay. […] The introduction of substituted benzyl halide to the C-2, C-2′ and C-1″ position of FGFC1 decreased cytotoxicity, which increased with increasing concentration (0.25, 0.5, 1.0 mg/mL). Moreover, to evaluate the possible apoptosis of HeLa cells induced by F6, Fas/APO-1 (a type of cell-surface NGF/TNF receptor in cancer cell) assay was carried out (Figure 2B). To evaluate the immunogenic (inflammation) property, interleukin (IL-1) levels of derivative F6 was also tested by the IL-1 assays (Figure 2C). […] This meant that the ability of F6 to induce apoptosis was weaker than that of FGFC1. […] According to Figure 2B and Figure 2C, the negative effect of F6 on tissue cell was weaker than that of FGFC1.
HeLa (human cervical carcinoma) cells were incubated in medium (10% fetal bovine serum, 1% penicillin, 1% streptomycin) at 37 °C with 95% air and 5% CO2. Cells were passaged every 2–3 d and select exponential growth cells were used for further experiments.
The cell growth inhibitory activity of FGFC1 and derivative F6 on HeLa cell lines were determined by the MTT (3-(4,5-dimethylthiazol-2yl)-2,5-diphenyl tetrazolium bromide) assay as we previously reported. In addition, an equal volume of DMEM medium was added to the blank group.

Fas/Apo-1 = Fas/Apo-1 ELISA assay on HeLa cells; assay type: cell-based, human; conditions: Figure 2B, compared with blank and FGFC1
Description: as §1
Fas/Apo-1 assay was carried out according to the manufacturer’s protocol. A blank control group was set up. It was not added with the samples (FGFC1 and derivative F6) and the enzyme standard reagent, and the other steps were the same. The standard curve group and the sample group were tested. On the 96-well plate, the standard curve group was supplemented with 50 μL of the standard. […] After the addition of stop solution to reaction wells, the absorbance was recorded at OD 450 nm on an Enzyme-Labeled (microplate reader) Instrument after 15 min.

IL-1 = IL-1 ELISA assay on HeLa cells; assay type: cell-based, human; conditions: Figure 2C, compared with blank and FGFC1
Description: as §1
The cell culture method on the 96-well plate is in accordance with that in the MTT assay. The Elisa kit assay based on IL-1 of HeLa cells was consistent with the Fas/Apo-1 Elisa kit assay.

| EC50 (fibrinolytic activity) (pro-uPA and plasminogen) [µM] | Compound | further results |
| --- | --- | --- |
| 59.7 | COC(=O)[C@@H](CCCN1Cc2c(cc(OC)c3c2O[C@](C)(CC/C=C(\C)CCC=C(C)C)[C@H](O)C3)C1=O)N1Cc2c(cc(OC)c3c2O[C@](C)(CC/C=C(\C)CCC=C(C)C)[C@H](O)C3)C1=O [F1] |  |
| 82.8 | CC(C)=CCC/C(C)=C/CC[C@@]1(C)Oc2c(c(OCc3ccc(C#N)cc3)cc3c2CN(CCC[C@H](C(=O)OCc2ccc(C#N)cc2)N2Cc4c(cc(OCc5ccc(C#N)cc5)c5c4O[C@](C)(CC/C=C(\C)CCC=C(C)C)[C@H](O)C5)C2=O)C3=O)C[C@H]1O [F4] |  |
| 115.0 | CC(C)=CCC/C(C)=C/CC[C@@]1(C)Oc2c(c(O)cc3c2CN(CCC[C@H](C(=O)O)N2Cc4c(cc(O)c5c4O[C@](C)(CC/C=C(\C)CCC=C(C)C)[C@H](O)C5)C2=O)C3=O)C[C@H]1O [FGFC1, 2,5-Bis-[8-(4,8-dimethyl-nona-3,7-dienyl)-5,7-dihydroxy-8-methyl-3-keto-1,2,7,8-teraahydro-6H-pyran[a]isoindol-2-yl]-pentanoic acid, reference compound] | cytotoxicity on HeLa cell lines (HeLa cells): moderate cytotoxicity |
| 66.6 | CCCOC(=O)[C@@H](CCCN1Cc2c(cc(OCCC)c3c2O[C@](C)(CC/C=C(\C)CCC=C(C)C)[C@H](O)C3)C1=O)N1Cc2c(cc(OCCC)c3c2O[C@](C)(CC/C=C(\C)CCC=C(C)C)[C@H](O)C3)C1=O [F3] |  |
| 119.6 | CC(C)=CCC/C(C)=C/CC[C@@]1(C)Oc2c(c(OCc3ccccc3Br)cc3c2CN(CCC[C@H](C(=O)OCc2ccccc2Br)N2Cc4c(cc(OCc5ccccc5Br)c5c4O[C@](C)(CC/C=C(\C)CCC=C(C)C)[C@H](O)C5)C2=O)C3=O)C[C@H]1O [F7] | fibrinolytic activity (in words) (pro-uPA and plasminogen): retained fibrinolytic activity |
| 42.3 | CC(C)=CCC/C(C)=C/CC[C@@]1(C)Oc2c(c(OCc3ccc(Br)cc3)cc3c2CN(CCC[C@H](C(=O)OCc2ccc(Br)cc2)N2Cc4c(cc(OCc5ccc(Br)cc5)c5c4O[C@](C)(CC/C=C(\C)CCC=C(C)C)[C@H](O)C5)C2=O)C3=O)C[C@H]1O [F6] | fibrinolytic activity relative to FGFC1 (pro-uPA and plasminogen; ratio of EC50 vs FGFC1): 2.72 fold; expression level of Fas (Fas/Apo-1): remarkably higher than that of the blank, but it was less than that of FGFC1; expression level of IL-1 (IL-1): obviously higher than that of blank, but it was less than that of FGFC1; cytotoxicity on HeLa cell lines (HeLa cells): moderate cytotoxicity |
| 133.3 | CC(C)=CCC/C(C)=C/CC[C@@]1(C)Oc2c(c(OCc3ccc(OC(F)(F)F)cc3)cc3c2CN(CCC[C@H](C(=O)OCc2ccc(OC(F)(F)F)cc2)N2Cc4c(cc(OCc5ccc(OC(F)(F)F)cc5)c5c4O[C@](C)(CC/C=C(\C)CCC=C(C)C)[C@H](O)C5)C2=O)C3=O)C[C@H]1O [F5] | fibrinolytic activity (in words) (pro-uPA and plasminogen): markedly decreased the fibrinolytic activity |
| 87.1 | CCOC(=O)[C@@H](CCCN1Cc2c(cc(OCC)c3c2O[C@](C)(CC/C=C(\C)CCC=C(C)C)[C@H](O)C3)C1=O)N1Cc2c(cc(OCC)c3c2O[C@](C)(CC/C=C(\C)CCC=C(C)C)[C@H](O)C3)C1=O [F2] |  |

From PMC8071544, “Synthesis and Bioactivities of Marine Pyran-Isoindolone Derivatives as Potential Antithrombotic Agents” (Marine Drugs, 2021)
